Laboratory results published in patent US7247615B2, “Peptide agonists of prostate-specific antigen and uses therefor” (priority 2001, dated 2007).
“And” between values parts separate entries of the source, which are not always exact repeats. Equal entries are not always repeated.

Columns and labels:
[1] = target: T1, HLA-A2 (Homo sapiens, UniProt P04439, D140Y/D185E/D98H/E176V/E277Q/G131W/G231S/I119V/I121R/I166T/I218V/L300P/L318F/N151K/N90K/P208A/P217A/Q86G/Q94H/R138H/R169H/T345S); assay: Peptide binding to HLA-A2 on T2A2 cells (flow cytometry); conditions: peptide 0 to 50 μg/ml, FIG. 1A
T1 construct: endogenous in cells; host or cells: T2A2 / 174CEM-T2 (T2) transport deletion mutant cell line
Protocol: Single-color flow cytometric analysis. The method for single-color flow cytometric analysis was described previously (F. Guadagni et al., 1990, Cancer Res. 50:6248–6255). Briefly, cells were washed three times with cold Ca^2+ and Mg^2+-free DPBS and then stained for 1 h with mAb against HLA-A2 (A2,69, One Lambda, Inc., Canoga Park, Calif.), using 10 μg of the 1× working dilution per 10^6 cells. Mineral oil plasmacytoma-104E (Cappel/Organon Teknika Corp., West Chester, Pa.) was used as an isotype control. The cells were washed three times and incubated with a 1:100 dilution of fluorescein isothiocyanate (FITC)-labeled goat anti-mouse immunoglobulin (IgG) (Kirkegaard and Perry Laboratories, Gaithersburg, Md.). The cells were immediately analyzed using a Becton Dickinson FACScan equipped with a blue laser with an excitation of […] at 488 nm. Data were gathered from 10,000 live cells, stored and used to generate results.
Peptide Binding to HLA-A2. […] Briefly, 1×10^6 cells in serum-free Iscove's modified Dulbecco's complete medium were incubated with peptides at a concentration of 50 μg/ml in 24 well culture plates at 37° C. in 5% CO2. Flow cytometry for peptide binding was performed using T2 cells and single-color analysis. After cells were washed three times in DPBS, as described above, they were incubated for 1 h with HLA-A2 specific MAb (One Lambda, Inc.) using 10 μg of a 1× working dilution per 10^6 cells. UPC-10 (Cappel/Organon Teknika) was used as isotype control. The cells were washed three times and incubated with 1:100 dilution of FITC-labeled anti-mouse IgG (Becton Dickinson). Analysis was conducted with the FACScan, as described above. Cells were maintained on ice during all cell preparation and staining.
The four analogs were then tested for binding to the HLA-A2 positive T2A2 cells as described in the Examples section. The NCA peptide was previously shown to not bind to HLA-A2, and was used as a negative […] control. Peptides were added to T2A2 cells at concentrations of 0 to 50 μg/ml.

[2] = system: T-PSA-3A cells; assay: IFN-γ production by T cell line stimulated with peptide-pulsed DCs (ELISA); type: cell-based, human; conditions: peptide 25 μg/ml
Protocol: (§1) Detection of Cytokines. Supernatant of T cells exposed for 24 h to peptide-pulsed infected DC, rV-PSA infected DC, or rV-PSA-3A infected DC, in IL-2-free medium at various responder: stimulator ratios, were screened for secretion of IFN-γ using an ELISA kit (R & D Systems, Minneapolis, Minn.). The results were calculated as pg/ml. A Cytometric Bead Array (CBA) system (BD PharMingen, San Diego, Calif.) was also used to determine the secretion of multiple cytokines by specific T cell lines. The CBA system uses the fluorescence detection by flow cytometry to measure soluble analytes in a particle-based immunoassay. The BD human Th1/Th2 cytokine CBA Kit was employed to measure IL-2, IL-4, IL-5, IL-10, TNF-α, and IFN-γ protein levels in a single sample. The cytokine capture beads were mixed with PE-conjugated detection antibodies and then incubated with recombinant cytokine standards or test samples to form sandwich complexes. The samples results were generated in graphical and tabular format using BD CBA analysis software. The results were calculated as pg/ml.
Table 2: Production of IFN-γ by a T cell line stimulated with PSA-3 or agonist PSA-3A peptides. The PSA-specific T cell line T-PSA-3A was used as effector cells at IVS-3. T-PSA-3A cells were stimulated with irradiated HLA-A2 positive allogeneic DCs either pulsed with PSA-3 or PSA-3A peptide at a concentration of 25 μg/ml and an effector-to-APC ratio of 10:1. After 24-h culture supernatants were collected and screened for the secretion of IFN-γ. APC=antigen […].

[3] = system: DCs; assay: IL-12 production by peptide-pulsed DCs in the presence of T cells; type: cell-based, human
Protocol: It has been previously shown that the activation of T cells by peptidepulsed DCs is related to the level of IL-12 production by the DCs. Studies were therefore conducted to determine the levels of IL-12 production by DCs pulsed with PSA-3 and PSA-3A peptides in the presence of T cells. […] When DCs pulsed with the PSA3A peptide were incubated with both T cell lines, the DCs incubated with the T-PSA-3A line again produced higher levels of IL-12 than those peptide-pulsed DCs incubated with the T cell line T-PSA-3 (Table 3).

[4] = system: T-PSA-3 cells; assay: Cytometric Bead Array cytokine production by peptide-stimulated T cells; type: cell-based, human; conditions: T-PSA-3 + peptide-pulsed autologous B cells, 24 h supernatant
Protocol: as §1
The cytokine profile of T cells stimulated with APCs pulsed with either the PSA-3 or the PSA-3A peptide was then analyzed. The T cell line derived using the PSA-3 peptide was used in these studies, and the APCs used were autologous B cells. A Cytometric Bead Array (CBA) assay was used for analysis (see Examples section) using supernatant fluids obtained 24 h after stimulation. FIGS. 6A–6C illustrate […] of the 10 internal standards used for the calibration of the results obtained in this assay. FIGS. 6D–6F show the levels of each of six cytokines produced by T cells stimulated with APCs pulsed with no peptide, PSA-3A peptide, and PSA-3 peptide, respectively. […] The results obtained for IL-5 will be discussed below (Conclusions section).

[5] = system: HLA-A2/K^b transgenic mice; assay: Immunization of HLA-A2.1/Kb transgenic mice with peptide-pulsed DCs, IFN-γ production by T cells; type: in vivo, mouse; conditions: 24 h
From the text: Transgenic Mice. HLA-A2.1/K^b transgenic mice were kindly provided by Dr. L. Sherman (Scripps Laboratories, San Diego, Calif.). Transgenic mice express the product of the HLA-A2.1/Kb chimeric gene in which the alpha-3 domain of the heavy chain is replaced by mouse H-2/K^b domain, but the HLA-A2.1 alpha-1 and alpha-2 domains are unaltered (A. Vitiello et al., 1991, J. Exp. Med. 173:1007–1015; V. H. Engelhard et al., 1991, J. Immunol. 46:1226–1232).
In Vivo Immunization and Murine T cell Cultures. Three groups of HLA-A2.1/K^b transgenic mice (three mice per group) were immunized s.c. (subcutaneously) in the base of the tail with PSA-3 peptide-pulsed HLA-A2.1/K^b DC, PSA-3A peptide-pulsed DCs from HLA-A2.1/K^b transgenic mice, or DCs only. Peptides were used at a concentration of 50 μg/ml and DCs were used at 1×10^6 cell/mouse/injection. A total of three injections were given to each animal, 2 weeks apart. Mice injected with DCs only were used as controls. Mice were sacrificed 7 days after the last injection, and spleen cells were restimulated in vitro with 25 μg/ml of PSA-3 or PSA3A peptide with irradiated syngeneic spleen cell for 6 days. The cytokine production of these bulk cultures was tested. Peptide-pulsed Jurkat A2 (JA2 K^b) cells were used as stimulator cells. Jurkat 0201 K^b cells are stable transfectants of the human T cell leukemia line, Jurkat, which express the product of HLA-A0201K^b climeric gene (L. A. Sherman et al., 1992, Science 258:815–818).
The HLA-A2/K^b transgenic mouse has been previously reported to aid in the determination of the immunogenicity of HLA-A2 peptides for humans. This in vivo system was thus employed to further analyze and compare the immunogenicity of the PSA-3A peptide with that of the native PSA-3 peptide. DCs from the HLA-A2/K^b transgenic mice were pulsed with either the PSA-3 or the PSA-3A peptide and used to vaccinate HLA-A2b mice. DCs alone (no peptide) were also used as a control vaccine. After three vaccinations at 2-week intervals, T cells were isolated from splenocytes obtained 2 weeks after the last vaccination. The T cells were then incubated with Jurkat A2/K^b cells pulsed with the PSA-3 peptide, the PSA-3A peptide, or no peptide, and production of INF-γ was measured from supernatants after 24 h.

[6] = system: CD8+ cells (T-PSA-3); assay: Apoptosis (TUNEL) assay of peptide-stimulated T cells; type: cell-based, human; conditions: T cells stimulated with peptide-pulsed autologous B cells, IVS-5, TUNEL
From the text: FIGS. 5A–5C. DNA fragmentation in peptide stimulated T cells using the TUNEL assay. Apoptosis of CD8^+ cells activated by PSA peptide pulsed autologous B cells. FIG. 5A: T-PSA-3 cells stimulated with B cells with no peptide; FIG. 5B: T-PSA-3 cells stimulated with B cells pulsed with PSA-3 peptide; FIG. 5C: T-PSA-3 cells stimulated with B cells pulsed with PSA-3A peptide. Numbers in each histogram indicate percent of apoptotic cells (cells above line) as described in the Examples section.
Apoptosis Assay. T cells were incubated for 48 h in the presence of peptide-pulsed autologous B cells as described in the IVS procedure, above, and replated to 96-well plates for 24 h. Apoptosis was analyzed using the terminal deoxynucleotidyl transferase-mediated nick-end labeling (TUNEL) assay (Y. Gavrieli et al., 1992, J. Cell Biol. 119:493–501).

Row | Sequence | Binding to HLA-A2 (relative fluorescence, MFI) [1] | PRODUCTION OF IFN-γ ([2]; APC DCs, T-PSA-3A T cells present, effector-to-APC 10:1, 24 h, IVS-3) [pg/mL] | PRODUCTION OF IFN-γ ([2]; APC DCs, no T cell, 24 h) [pg/mL] | PRODUCTION OF IFN-γ ([2]; no APC, T-PSA-3A T cells present, 24 h) [pg/mL] | IL-12 PRODUCTION ([3]; APC DC, T cell line T-PSA-3, peptide 25 μg/ml, 10:1, 24 h, IVS-4) [pg/ml/5 × 10^5 DC] | IL-12 PRODUCTION ([3]; APC DC, T cell line T-PSA-3A, peptide 25 μg/ml, 10:1, 24 h, IVS-4) [pg/ml/5 × 10^5 DC] | IL-12 PRODUCTION ([3]; no APC, T cell line T-PSA-3, peptide 25 μg/ml, 24 h) [pg/ml/5 × 10^5 DC] | IL-12 PRODUCTION ([3]; no APC, T cell line T-PSA-3A, peptide 25 μg/ml, 24 h) [pg/ml/5 × 10^5 DC] | Production of IL-4 [4] | Production of IL-10 [4] | Production of TNF-α [4] | Production of IFN-γ ([5]; label = peptide pulsed on immunizing DCs, Jurkat A2/K^b cells pulsed with PSA-3A (25 μg/ml)) | Production of IFN-γ ([5]; label = peptide pulsed on immunizing DCs, Jurkat A2/K^b cells with no peptide) [pg/ml/10^6 cells] | Production of IFN-γ ([5]; label = peptide pulsed on immunizing DCs, T cells restimulated with Jurkat A2/K^b cells pulsed with PSA-3 (25 μg/ml)) | Production of IFN-γ ([5]; mice immunized with DCs (no peptide), label = peptide pulsed on Jurkat A2/K^b cells) [pg/ml/10^6 cells] | Apoptotic CD8+ cells [6]
1 | VISNDVCAQL (SEQ ID NO:2) [1–163] | no binding | – | – | – | – | – | – | – | – | – | – | – | – | – | – | –
2 | YISNDVCAQV (SEQ ID NO:4) [Y154] | higher levels than PSA-3 | – | – | – | – | – | – | – | – | – | – | – | – | – | – | –
3 | VISNDVCAQV (SEQ ID NO:1) [PSA-3, reference compound] | – | 280 | <15 | <15 | 5.0 | 10.5 | <0.6 | <0.6 | Low or undetectable levels | Low or undetectable levels | No TNF-α could be detected | 1,969.0 pg/ml/10^6 cells | <37.0 | 1,908.0 pg/ml/10^6 cells | <37.0 | 4.9% and 4.5%
